Source: PMC6300878, “In vitro antiplasmodial activity, pharmacokinetic profiles and interference in isoprenoid pathway of 2-aniline-3-hydroxy-1.4-naphthoquinone derivatives” (Malaria Journal, 2018)

Legend:
[1] = tested on: Plasmodium berghei; set-up: method as in PMID 23850202; details: murine Plasmodium berghei model; cited from earlier work
[2] = solution with a maximum of 1% DMSO
[3] = tested on: tocopherol (TC) biosynthesis
Description: (§1) A flask was kept untreated and is considered the positive control. After 36 h, the culture was labeled with [1-(n)-^3H]GGPP (3.125 µCi/ml) in normal RPMI 1640 medium [32] during the last 16 h. The schizonts were purified by magnetic column (MACS Separation Columns “CS”, Miltenyi Biotec) [33]. The parasitaemia was estimated by microscopic examination of Giemsa-stained smears and the volume was adjusted of purified culture, according to the control, so that equal numbers of treated and untreated parasites were applied. After metabolic labelling and purification, lyophilized schizonts were used for extraction of MQ and TC. The final extract was injected into the HPLC-RT [34].
(§2) The molecules of MQ and TC were purified by an isocratic system with mobile phase methanol: ethanol (50:50 v/v), flow 0.5 ml/min and detection performed by UV absorption spectrum at a wavelength equal to 270 nm. The mobile phase was filtered on a PTFE (solvent A) and NYLON (solvent B) membrane of 0.20 µM. Radioactive fractions were dried by evaporation at 24 °C and resuspended in scintillation fluid. Quantification of the radioactivity (c.p.m.) was performed on the device Beckman 5000 β-radiation scintillation counter (Beckman, CA, USA) [34].
(§3) The IC50 was estimated by linear interpolation as compared to the drug-free controls, using the software GraphPad PRISM software. […]

[4] = tested on: menaquinone (MQ) biosynthesis
Description: as §1, §2, §3

[5] = cited from earlier work

SMILES | Antiplasmodial activity in vivo [1] | Solubility [2] | inhibition [3] | inhibition [4] | Binding to plasma proteins [5] | Bioavailability [5] | Biopharmaceutics Classification (BCS) class [5]
O=C1C(O)=C(Nc2ccccc2)C(=O)c2ccccc21 [4a] | interesting antiplasmodial activity | soluble |  |  |  |  | 
COc1ccc(NC2=C(O)C(=O)c3ccccc3C2=O)cc1 [4c] | interesting antiplasmodial activity | soluble | 49.6% | 58.1% |  |  | 
O=C1C(O)=C([C@H]2CC[C@H](c3ccc(Cl)cc3)CC2)C(=O)c2ccccc21 [atovaquone] |  |  |  |  | high binding to plasma proteins | low bioavailability | class II
